The values that follow come from PubChem BioAssay (NCI).

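Results reflect a 48-hour exposure of cells in 96-well plates to compound at five concentrations. Abbreviation: GI50, concentration required for 50% inhibition of growth. The concentration for full growth arrest is given as TGI.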

What all share (assay): NCI anticancer screen, dose series, 48 h
The test system of assay [1] is A498 renal.
The subject of assay [2] is CAKI-1 renal.
The subject of assay [3] is HOP-62 NSCLC.
Assay [4] deals with HT29 colon.
Assay [5] has as its system MCF7 breast.
Assay [6] relates to MDA-MB-435.
Assay [7] relates to NCI/ADR-RES ovarian.
Assay [8] has as its system SK-MEL-5 melanoma.
In assay [9] the test system is SNB-19 CNS.
In assay [10] the test system is SK-MEL-28 melanoma.

Consider `C=C1CC[C@@H](C(C)C)C[C@@H]2[C@H]([C@H](O)C[C@]2(C)O)[C@@]2(C)CC[C@@H]1O2`, for which the GI50 in assay [1] was 26 µM; in assay [2], 0.792 µM; in assay [3] it was 17.7 µM; in assay [4], 11.8 µM; in assay [5], 16.2 µM; in assay [6], 16.4 µM. For the same compound, the GI50 in [7] is 16.7 µM; in [8], 14.8 µM; in [9], 19.2 µM. Besides, the TGI in assay [1] was determined as 42.9 µM; in [2], 18.7 µM; in [3] it was 31.6 µM; in assay [4] it was 26.5 µM; in assay [5], 29.7 µM; in assay [6], 32.1 µM. The TGI in assay [7] came out at 33.2 µM; in assay [8], 28.3 µM; in assay [9] it was 33.2 µM.

For `CO/N=C(/C)c1cccc(Nc2cc(-c3ccccc3)nc3ccc(OC)cc23)c1`, the GI50 was 3.18 µM in [2]; 2.37 µM in assay [3]; 34.1 µM in [4]; 5.71 µM in assay [5]; 1.99 µM in assay [6]; 4.7 µM in assay [7]. The figures for the GI50 in [10], in [8] and in assay [9] were 28.6 µM, 2.63 µM and 35.2 µM, respectively. Also, the TGI in assay [2] was 10.9 µM; in [3], 6.17 µM; in assay [4] it was > 100 µM; in assay [5] it was 56.5 µM; in assay [6], 6.12 µM; in [7], 24 µM. Further, the TGI in assay [10] is 66.8 µM; in assay [8] it was 8.13 µM; in assay [9] it was > 100 µM.

`Cc1nn(C(=O)c2ccc(Cl)cc2)c2c1C(c1ccc(O)cc1)SC(N)=N2` (stereo not drawn): the TGI in assay [2], in assay [3], in assay [4], in [5], in assay [6] and in [7] was > 10 µM in each case. Further, the TGI in assay [10], in assay [8] and in [9] was > 10 µM throughout.

Turning to `O=C1C(Cl)=C(Nc2ccccc2O)C(=O)N1Cc1ccccc1`, the GI50 in [1] is 18.4 µM; in assay [2], 26 µM; in assay [3], 18.5 µM; in assay [5] it was 24.5 µM; in assay [6], 19.7 µM; in assay [7], 24.6 µM. Further, the GI50 in [10] was 25.1 µM; in [8] it was 15.3 µM; in [9] it was 35.8 µM. Also, the TGI in assay [1] came out at 40.6 µM; in assay [2], 68.7 µM; in assay [3], 32.6 µM; in assay [5], 64.6 µM; in assay [6], 37.4 µM; in [7], 57.1 µM. Moreover, the TGI in [10] was 55.4 µM; in assay [8] it was 28.6 µM; in assay [9], > 100 µM.

On to `O=C(N/N=C/c1ccc([N+](=O)[O-])o1)c1ccc(O)cc1`, for which the GI50 is 7.26 µM in assay [2]; 6.2 µM in assay [3]; 5.88 µM in [4]; 2.84 µM in [5]; 1.65 µM in [6]; 5.54 µM in [7]. In addition, the GI50 in assay [10] was 14.7 µM; in assay [8], 1.47 µM; in [9] it was 5.39 µM. Further, the TGI in [2] is > 100 µM; in assay [3], > 100 µM; in assay [4], > 100 µM; in assay [5] it was 14 µM; in assay [6], 3.19 µM; in assay [7], > 100 µM. In addition, the TGI was > 100 µM in assay [10], 2.88 µM in assay [8] and > 100 µM in [9].

In the case of `C=CCN1CC2CON(C(=O)C(OC)(c3ccccc3)C(F)(F)F)C2C1C(C)C` (stereo not drawn), the GI50 is 23.5 µg/mL in [1]; 26.2 µg/mL in assay [5]; 41.8 µg/mL in assay [6]; 34.2 µg/mL in [7]; 52.9 µg/mL in [10]; 54.5 µg/mL in assay [9]. The TGI in assay [1] is 92 µg/mL; in assay [5], 78.7 µg/mL.

For the compound `CCC(=O)Nc1ccc(N=NN(C)C)cc1`, the TGI in assay [1], in assay [3], in assay [4], in assay [5], in [6] and in assay [7] was > 100 µM throughout. The TGI in assay [10], in [8] and in assay [9] was > 100 µM throughout.

Turning to `Nc1ccc2nc3n(c2c1)C(=O)c1ccccc1-3`, the TGI in assay [2], in assay [4], in [5], in assay [7], in assay [10] and in assay [8] was > 100 µM each time. Besides, in [9], the TGI was > 100 µM.

In the case of `Cc1ccc(S(=O)(=O)NC(=O)NC2=NC(C)(C)N(c3ccc(Cl)c(Cl)c3)C(N)=N2)cc1`, the TGI in assay [1], in [2], in [3], in [4], in assay [5] and in assay [7] was > 100 µM in each case. The TGI in assay [10], in [8] and in assay [9] was > 100 µM throughout.

For `Cc1ncc([N+](=O)[O-])n1CCNS(=O)(=O)CCCn1ncnc1[N+](=O)[O-]`, the TGI in [1], in [2], in assay [3], in [4], in assay [5] and in [6] was > 100 µM each time. For the same compound, the TGI in [7], in assay [10] and in [8] was > 100 µM throughout.

Consider `Clc1cc(Cl)cc(Nc2ccc3cc(OCCCN4CCOCC4)ccc3n2)c1`, for which the GI50 in [1] was 1.93 µM; in assay [4], 1.56 µM; in assay [7], 2.96 µM; in assay [8], 1.71 µM. Besides, the TGI in assay [1] was 8.78 µM; in assay [4] it was 3.74 µM; in assay [7], > 100 µM; in [8], 3.13 µM.

On to `COC(=O)c1cccc2cccc(C(=O)Nc3ccc(Cl)cc3)c12`, for which the TGI in [1], in [2], in assay [3], in assay [4], in assay [10] and in assay [8] was > 100 µM in each case. Besides, the TGI in [9] is > 100 µM.
